Measured values: the NIST ThermoML archive (doi:10.1021/acs.jced.6b00430)
± gives the expanded uncertainty stated by the source.

Assay: xn = mol fraction of the nth substance listed
Settings: 100 kPa, Liquid; for electrical conductivity: Alternating current cell with electrodes; for viscosity: Concentric cylinders viscometry; for mass density: Vibrating tube method

## O=[PH](O)O [phosphonic acid] + CN(C)C=O
338.15 K, x1 = 0.6554
  electrical conductivity: 1.06 ± 0.11 S/m
  viscosity: 23.6 ± 1.4 mPa·s
  mass density: 1322.46 ± 10 kg/m3
338.15 K, x1 = 0.682
  electrical conductivity: 1.39 ± 0.14 S/m
  viscosity: 25.2 ± 1.5 mPa·s
338.15 K, x1 = 0.7694
  electrical conductivity: 2.29 ± 0.23 S/m
  viscosity: 28.6 ± 1.7 mPa·s
  mass density: 1411.68 ± 10 kg/m3
338.15 K, x1 = 0.7832
  electrical conductivity: 2.42 ± 0.24 S/m
  viscosity: 29.1 ± 1.8 mPa·s
338.15 K, x1 = 0.1973
  viscosity: 1.67 ± 0.1 mPa·s
338.15 K, x1 = 0.2507
  viscosity: 2.45 ± 0.15 mPa·s
338.15 K, x1 = 0.2984
  viscosity: 3.49 ± 0.21 mPa·s
338.15 K, x1 = 0.3115
  viscosity: 3.66 ± 0.22 mPa·s
338.15 K, x1 = 0.3491
  viscosity: 5.02 ± 0.3 mPa·s
338.15 K, x1 = 0.3968
  viscosity: 7 ± 0.42 mPa·s
338.15 K, x1 = 0.3988
  viscosity: 6.98 ± 0.42 mPa·s
338.15 K, x1 = 0.4107
  viscosity: 7.75 ± 0.47 mPa·s
  mass density: 1155.74 ± 10 kg/m3
338.15 K, x1 = 0.4479
  viscosity: 9.91 ± 0.6 mPa·s
  mass density: 1172.2 ± 10 kg/m3
338.15 K, x1 = 0.4968
  viscosity: 12.7 ± 0.8 mPa·s
338.15 K, x1 = 0.5074
  viscosity: 11.6 ± 0.7 mPa·s
  mass density: 1210.34 ± 10 kg/m3
338.15 K, x1 = 0.5503
  viscosity: 17.2 ± 1 mPa·s
338.15 K, x1 = 0.5761
  viscosity: 18.7 ± 1.1 mPa·s
338.15 K, x1 = 0.5993
  viscosity: 19.2 ± 1.2 mPa·s
338.15 K, x1 = 0.6261
  viscosity: 22.6 ± 1.4 mPa·s
338.15 K, x1 = 0.6316
  viscosity: 22.3 ± 1.3 mPa·s
338.15 K, x1 = 0.6478
  viscosity: 23.8 ± 1.4 mPa·s
338.15 K, x1 = 0.7142
  viscosity: 27 ± 1.6 mPa·s
  mass density: 1374.38 ± 10 kg/m3
338.15 K, x1 = 0.0911
  mass density: 954.96 ± 10 kg/m3
338.15 K, x1 = 0.1365
  mass density: 979.11 ± 10 kg/m3
338.15 K, x1 = 0.1798
  mass density: 1003.68 ± 10 kg/m3
338.15 K, x1 = 0.1829
  mass density: 1004.95 ± 10 kg/m3
338.15 K, x1 = 0.2293
  mass density: 1032.82 ± 10 kg/m3
338.15 K, x1 = 0.291
  mass density: 1068.59 ± 10 kg/m3
338.15 K, x1 = 0.3298
  mass density: 1093.82 ± 10 kg/m3
338.15 K, x1 = 0.3442
  mass density: 1102.06 ± 10 kg/m3
338.15 K, x1 = 0.3712
  mass density: 1119.72 ± 10 kg/m3
338.15 K, x1 = 0.3937
  mass density: 1133.99 ± 10 kg/m3
338.15 K, x1 = 0.421
  mass density: 1160.23 ± 10 kg/m3
338.15 K, x1 = 0.4707
  mass density: 1187.28 ± 10 kg/m3
338.15 K, x1 = 0.493
  mass density: 1201.35 ± 10 kg/m3
338.15 K, x1 = 0.5196
  mass density: 1220.86 ± 10 kg/m3
338.15 K, x1 = 0.5429
  mass density: 1236.41 ± 10 kg/m3
338.15 K, x1 = 0.5724
  mass density: 1258.27 ± 10 kg/m3
338.15 K, x1 = 0.5925
  mass density: 1272.25 ± 10 kg/m3
338.15 K, x1 = 0.6245
  mass density: 1295.1 ± 10 kg/m3
338.15 K, x1 = 0.6753
  mass density: 1331.43 ± 10 kg/m3
338.15 K, x1 = 0.6923
  mass density: 1345.85 ± 10 kg/m3
338.15 K, x1 = 0.725
  mass density: 1368.62 ± 10 kg/m3
338.15 K, x1 = 0.7592
  mass density: 1400.4 ± 10 kg/m3
338.15 K, x1 = 0.7845
  mass density: 1422.74 ± 10 kg/m3
348.15 K, x1 = 0.0911
  mass density: 945.43 ± 10 kg/m3
348.15 K, x1 = 0.1365
  mass density: 969.77 ± 10 kg/m3
348.15 K, x1 = 0.1798
  mass density: 994.4 ± 10 kg/m3
348.15 K, x1 = 0.1829
  mass density: 995.9 ± 10 kg/m3
348.15 K, x1 = 0.2293
  mass density: 1023.58 ± 10 kg/m3
348.15 K, x1 = 0.291
  mass density: 1059.58 ± 10 kg/m3
348.15 K, x1 = 0.3298
  mass density: 1084.14 ± 10 kg/m3
348.15 K, x1 = 0.3442
  mass density: 1093.18 ± 10 kg/m3
348.15 K, x1 = 0.3712
  mass density: 1110.71 ± 10 kg/m3
348.15 K, x1 = 0.3937
  mass density: 1125.23 ± 10 kg/m3
348.15 K, x1 = 0.4107
  mass density: 1147 ± 10 kg/m3
348.15 K, x1 = 0.421
  mass density: 1150.66 ± 10 kg/m3
348.15 K, x1 = 0.4479
  mass density: 1158.49 ± 10 kg/m3
348.15 K, x1 = 0.4707
  mass density: 1177.52 ± 10 kg/m3
348.15 K, x1 = 0.493
  mass density: 1192.77 ± 10 kg/m3
348.15 K, x1 = 0.5074
  mass density: 1201.8 ± 10 kg/m3
348.15 K, x1 = 0.5196
  mass density: 1210.75 ± 10 kg/m3
348.15 K, x1 = 0.5429
  mass density: 1227.92 ± 10 kg/m3
348.15 K, x1 = 0.5724
  mass density: 1254.23 ± 10 kg/m3
348.15 K, x1 = 0.5925
  mass density: 1263.87 ± 10 kg/m3
348.15 K, x1 = 0.6245
  mass density: 1286.78 ± 10 kg/m3
348.15 K, x1 = 0.6554
  mass density: 1310.01 ± 10 kg/m3
348.15 K, x1 = 0.6753
  mass density: 1324.98 ± 10 kg/m3
348.15 K, x1 = 0.6923
  mass density: 1337.69 ± 10 kg/m3
348.15 K, x1 = 0.7142
  mass density: 1366.2 ± 10 kg/m3
348.15 K, x1 = 0.725
  mass density: 1373 ± 10 kg/m3
348.15 K, x1 = 0.7592
  mass density: 1394.6 ± 10 kg/m3
348.15 K, x1 = 0.7694
  mass density: 1401.02 ± 10 kg/m3
348.15 K, x1 = 0.7845
  mass density: 1410.65 ± 10 kg/m3
